Reference: BigSolDB 2.1

O=C(O)CNCc1ccccc1
solubility (mole fraction)
Details	283.15 K	288.15 K	293.15 K	298.15 K	303.15 K	313.15 K	323.15 K
in 1,4-dioxane	3.3e-05	–	5.5e-05	–	8.4e-05	0.00015	0.000211
in acetone	7.1e-05	–	9.4e-05	–	0.000133	0.000165	0.00024
in acetonitrile	5e-06	–	1.1e-05	–	1.7e-05	2.8e-05	4e-05
in dichloromethane	9e-06	2.1e-05	3.4e-05	4.2e-05	5.7e-05	–	–
in ethanol	0.000222	–	0.000326	–	0.00043	0.000526	0.000709
in ethyl acetate	1.1e-05	–	3.3e-05	–	6.7e-05	0.000102	0.000173
in isopropanol	6e-05	–	8e-05	–	9.6e-05	0.00012	0.000173
in methanol	0.00217	–	0.00269	–	0.00335	0.00416	0.0053
in n-butanol	0.000166	–	0.000203	–	0.000262	0.000338	0.000397
in n-propanol	0.000214	–	0.000266	–	0.000306	0.00037	0.000456
in water	0.00909	–	0.0113	–	0.014	0.0169	0.0214
